Test results taken from US20240382483A1, “HETEROCYCLIC EGFR INHIBITORS FOR USE IN THE TREATMENT OF CANCER” (Blueprint Medicines Corporation, priority 2021, published 2024).
Where a name gives a salt, the structure may show the parent alone.

Legend:
[1] = target: T1, EGFR (L858R T790M C797S) (Homo sapiens, UniProt P00533, C797S/L858R/T790M); assay: Biochemical EGFR inhibition assay (Caliper mobility shift), EGFR LRTMCS; conditions: LRTMCS (PH) IC50 (nM) @ 1 mM ATP (Num), EGFR LRTMCS mutant
T1 construct: purchased SignalChem E10-122VG
Summary of the method: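 Each enzyme was allowed to phosphorylate 10–20% of its peptide at 25° C. before EDTA (35 mM) quench. Separated substrate and product peaks were measured by mobility shift, giving apparent IC50 values.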

[2] = target: T2, intracellular phosphorylation of EGFR in NCI-H1975 cell line that harbors the EGFR L858R T790M mutations (Homo sapiens, UniProt P00533, L858R/T790M); assay: NCI-H1975 pEGFR AlphaLISA assay; format: cell-based; conditions: NCI-H1975 cells (EGFR L858R T790M), p-EGFR (Tyr1068), 4-5 hours incubation; read-out: Ext pEGFR H1975 GMean IC50 (nM) Protocol: @Pharmaron AlphaLISA (Num)
T2 construct: NCI-H1975 cell line that harbors the EGFR L858R T790M mutations (ATCC, CRL-5908); host or cells: NCI-H1975
Description: On the next day, the test compounds and DMSO control were added into H1975 cell plate followed by incubation at 37C/5% CO2 for 4-5 hours. […] Then 5 μL of a donor bead mix was added to each well followed by overnight incubation at room temperature in dark. On the next day, the plate was read at a compatible plate reader to obtain pEGFR signal. Percent of pEGFR inhibition was plotted against log concentration of compounds to generate IC50 values.

T1 sequence (P00533 25-1210 T790M/C797S/L858R): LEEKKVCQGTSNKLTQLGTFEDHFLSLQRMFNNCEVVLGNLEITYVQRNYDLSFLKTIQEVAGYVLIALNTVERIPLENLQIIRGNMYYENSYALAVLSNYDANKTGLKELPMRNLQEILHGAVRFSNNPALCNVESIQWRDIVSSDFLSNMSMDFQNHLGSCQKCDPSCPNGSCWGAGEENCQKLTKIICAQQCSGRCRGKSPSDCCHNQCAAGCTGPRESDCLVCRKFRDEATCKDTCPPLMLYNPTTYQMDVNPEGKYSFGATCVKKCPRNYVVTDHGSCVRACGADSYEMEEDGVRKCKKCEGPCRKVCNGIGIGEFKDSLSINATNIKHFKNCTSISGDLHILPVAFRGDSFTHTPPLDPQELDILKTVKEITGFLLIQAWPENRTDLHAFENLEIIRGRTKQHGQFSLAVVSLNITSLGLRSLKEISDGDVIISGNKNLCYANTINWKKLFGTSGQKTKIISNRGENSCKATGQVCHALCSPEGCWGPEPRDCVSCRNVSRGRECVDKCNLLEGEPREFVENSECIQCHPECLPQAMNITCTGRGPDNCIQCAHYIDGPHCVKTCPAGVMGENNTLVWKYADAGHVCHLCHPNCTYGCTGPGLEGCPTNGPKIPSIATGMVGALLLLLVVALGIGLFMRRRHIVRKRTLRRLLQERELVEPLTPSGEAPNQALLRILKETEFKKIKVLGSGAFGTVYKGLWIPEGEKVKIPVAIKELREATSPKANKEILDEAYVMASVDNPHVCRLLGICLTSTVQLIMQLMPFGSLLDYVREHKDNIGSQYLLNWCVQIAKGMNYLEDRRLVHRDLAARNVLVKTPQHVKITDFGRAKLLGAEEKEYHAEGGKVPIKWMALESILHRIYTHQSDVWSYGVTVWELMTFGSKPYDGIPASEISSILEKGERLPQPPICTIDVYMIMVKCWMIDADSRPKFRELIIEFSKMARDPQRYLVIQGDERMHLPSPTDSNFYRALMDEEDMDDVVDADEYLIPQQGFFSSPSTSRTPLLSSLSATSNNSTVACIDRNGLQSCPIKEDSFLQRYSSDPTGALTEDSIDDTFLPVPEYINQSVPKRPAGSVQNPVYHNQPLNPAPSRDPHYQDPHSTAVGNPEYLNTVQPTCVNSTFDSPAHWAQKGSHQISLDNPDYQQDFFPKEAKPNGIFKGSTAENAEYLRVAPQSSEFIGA
T2 sequence (P00533 25-1210 T790M/L858R): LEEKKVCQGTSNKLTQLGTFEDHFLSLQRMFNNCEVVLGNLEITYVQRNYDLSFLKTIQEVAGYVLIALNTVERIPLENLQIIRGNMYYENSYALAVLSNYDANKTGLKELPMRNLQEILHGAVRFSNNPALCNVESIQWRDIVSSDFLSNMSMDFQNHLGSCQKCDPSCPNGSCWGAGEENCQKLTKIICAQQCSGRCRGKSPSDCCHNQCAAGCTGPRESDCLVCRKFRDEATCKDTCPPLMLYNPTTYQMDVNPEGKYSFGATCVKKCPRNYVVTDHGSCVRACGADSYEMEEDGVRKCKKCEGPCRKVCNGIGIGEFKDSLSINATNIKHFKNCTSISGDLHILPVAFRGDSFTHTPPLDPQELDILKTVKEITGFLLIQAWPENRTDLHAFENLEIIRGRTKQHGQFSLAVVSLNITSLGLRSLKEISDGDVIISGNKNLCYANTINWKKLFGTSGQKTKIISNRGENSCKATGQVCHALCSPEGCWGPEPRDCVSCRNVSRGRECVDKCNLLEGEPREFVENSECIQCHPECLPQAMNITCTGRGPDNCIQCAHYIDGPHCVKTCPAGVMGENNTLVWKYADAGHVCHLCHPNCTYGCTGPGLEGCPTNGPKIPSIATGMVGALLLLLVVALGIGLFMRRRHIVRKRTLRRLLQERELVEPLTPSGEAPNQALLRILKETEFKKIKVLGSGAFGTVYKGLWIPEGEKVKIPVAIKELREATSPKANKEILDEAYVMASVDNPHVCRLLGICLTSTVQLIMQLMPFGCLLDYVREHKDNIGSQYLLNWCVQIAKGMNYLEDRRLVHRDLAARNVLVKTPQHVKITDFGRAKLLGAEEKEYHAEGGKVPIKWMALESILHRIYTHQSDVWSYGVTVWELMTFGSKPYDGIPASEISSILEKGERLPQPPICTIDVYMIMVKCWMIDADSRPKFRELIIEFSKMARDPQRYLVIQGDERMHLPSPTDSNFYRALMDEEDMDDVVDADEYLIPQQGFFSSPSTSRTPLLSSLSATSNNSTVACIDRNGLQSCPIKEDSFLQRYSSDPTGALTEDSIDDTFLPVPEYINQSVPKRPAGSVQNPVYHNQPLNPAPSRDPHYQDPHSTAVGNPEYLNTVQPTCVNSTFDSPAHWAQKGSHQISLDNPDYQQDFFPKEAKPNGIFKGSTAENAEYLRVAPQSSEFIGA

| IC50 [1] [nM] | IC50 [2] [nM] | SMILES |
| --- | --- | --- |
| 30 to 100 | > 50 | CC(C)c1cnc(-c2cnn(C)c2CN(C)C)c2cnc(Nc3ccnc(N4CC[C@@H](O)[C@@](C)(F)C4)n3)cc12 [Example 13, (3S,4R)-1-(4-((8-(5-((dimethylamino)methyl)-1-methyl-1H-pyrazol-4-yl)-5-isopropyl-2,7-naphthyridin-3-yl)amino)pyrimidin-2-yl)-3-fluoro-3-methylpiperidin-4-ol trifluoroacetate] |
| < 15 | > 50 | CC(C)c1cnc(-c2ncn(C)n2)c2cnc(Nc3ccnc(N4CC[C@@H](O)[C@@](C)(F)C4)n3)cc12 [Example 15, (3S,4R)-3-fluoro-1-(4-((5-isopropyl-8-(1-methyl-1H-1,2,4-triazol-3-yl)-2,7-naphthyridin-3-yl)amino)pyrimidin-2-yl)-3-methylpiperidin-4-ol] |
| 15 to 20 | > 50 | CC(C)c1cnc(-c2cnn(C(F)F)c2)c2cnc(Nc3ccnc(N4CC[C@@H](O)[C@@](C)(F)C4)n3)cc12 [Example 16, (3S,4R)-1-(4-((8-(1-(difluoromethyl)-1H-pyrazol-4-yl)-5-isopropyl-2,7-naphthyridin-3-yl)amino)pyrimidin-2-yl)-3-fluoro-3-methylpiperidin-4-ol] |
| < 15 | 30 to 50 | CC(C)c1cnc(-c2cn(C3COC3)cn2)c2cnc(Nc3ccnc(N4CC[C@@H](O)[C@@](C)(F)C4)n3)cc12 [Example 20, (3S,4R)-3-fluoro-1-(4-((5-isopropyl-8-(1-(oxetan-3-yl)-1H-imidazol-4-yl)-2,7-naphthyridin-3-yl)amino)pyrimidin-2-yl)-3-methylpiperidin-4-ol] |
| < 15 | > 50 | CC(C)c1cnc(-c2ccn(C3COC3)n2)c2cnc(Nc3ccnc(N4CC[C@@H](O)[C@@](C)(F)C4)n3)cc12 [Example 21, (3S,4R)-3-fluoro-1-(4-((5-isopropyl-8-(1-(oxetan-3-yl)-1H-pyrazol-3-yl)-2,7-naphthyridin-3-yl)amino)pyrimidin-2-yl)-3-methylpiperidin-4-ol] |
| 15 to 20 | > 50 | CC(C)c1cnc(-c2cnn(C3CN(C)C3)c2)c2cnc(Nc3ccnc(N4CC[C@@H](O)[C@@](C)(F)C4)n3)cc12 [Example 22, (3S,4R)-3-fluoro-1-(4-((5-isopropyl-8-(1-(1-methylazetidin-3-yl)-1H-pyrazol-4-yl)-2,7-naphthyridin-3-yl)amino)pyrimidin-2-yl)-3-methylpiperidin-4-ol] |
| < 15 | 30 to 50 | Cc1nc(-c2ncc(C(C)C)c3cc(Nc4ccnc(N5CC[C@@H](O)[C@@](C)(F)C5)n4)ncc23)n[nH]1 [Example 24, (3S,4R)-3-fluoro-1-(4-((5-isopropyl-8-(5-methyl-1H-1,2,4-triazol-3-yl)-2,7-naphthyridin-3-yl)amino)pyrimidin-2-yl)-3-methylpiperidin-4-ol] |
| 15 to 20 | 30 to 50 | CC(C)c1cnc(-c2nc[nH]n2)c2cnc(Nc3ccnc(N4CC[C@@H](O)[C@@](C)(F)C4)n3)cc12 [Example 25, (3S,4R)-3-fluoro-1-(4-((5-isopropyl-8-(1H-1,2,4-triazol-3-yl)-2,7-naphthyridin-3-yl)amino)pyrimidin-2-yl)-3-methylpiperidin-4-ol] |
| < 15 | 30 to 50 | Cc1nc(-c2ccc(C(C)C)c3cc(Nc4ccnc(N5CC[C@@H](O)[C@@](C)(F)C5)n4)ncc23)n[nH]1 [Example 26, (3S,4R)-3-fluoro-1-(4-((5-isopropyl-8-(5-methyl-1H-1,2,4-triazol-3-yl)isoquinolin-3-yl)amino)pyrimidin-2-yl)-3-methylpiperidin-4-ol] |
| < 15 | < 10 | COC[C@@H]1CCN1c1ncc(C(C)C)c2cc(Nc3ccnc(N4CC[C@@H](O)[C@@](C)(F)C4)n3)ncc12 [Example 29, (3S,4R)-3-fluoro-1-(4-((5-isopropyl-8-((S)-2-(methoxymethyl)azetidin-1-yl)-2,7-naphthyridin-3-yl)amino)pyrimidin-2-yl)-3-methylpiperidin-4-ol] |
| < 15 | < 10 | CC(C)c1ccc(N2CC(n3ccnn3)C2)c2cnc(Nc3ccnc(N4CC[C@@H](O)[C@@](C)(F)C4)n3)cc12 [Example 38, (3S,4R)-1-(4-((8-(3-(1H-1,2,3-triazol-1-yl)azetidin-1-yl)-5-isopropylisoquinolin-3-yl)amino)pyrimidin-2-yl)-3-fluoro-3-methylpiperidin-4-ol] |
| < 15 | 30 to 50 | CO[C@@H]1CCN(c2nccc(Nc3cc4c(C(C)C)cnc(N5CCC56CN(C)C6)c4cn3)n2)C[C@@H]1F [Example 41, N-(2-((3S,4R)-3-fluoro-4-methoxypiperidin-1-yl)pyrimidin-4-yl)-5-isopropyl-8-(6-methyl-1,6-diazaspiro[3.3]heptan-1-yl)-2,7-naphthyridin-3-amine] |

Continued, molecule first:

| SMILES | IC50 [1] [nM] | IC50 [2] [nM] |
| --- | --- | --- |
| CC(C)c1cnc(-c2cn(C)nn2)c2cnc(Nc3ccnc(N4CC[C@@H](O)[C@@](C)(F)C4)n3)cc12 [Example 10, (3S,4R)-3-fluoro-1-(4-((5-isopropyl-8-(1-methyl-1H-1,2,3-triazol-4-yl)-2,7-naphthyridin-3-yl)amino)pyrimidin-2-yl)-3-methylpiperidin-4-ol] | < 15 | 10 to 20 |
| CC(C)c1ncc(-c2ccn(C)n2)c2cnc(Nc3ccnc(N4CC[C@@H](O)[C@@](C)(F)C4)n3)cc12 [Example 11, (3S,4R)-3-fluoro-1-(4-((5-isopropyl-8-(1-methyl-1H-pyrazol-3-yl)-2,6-naphthyridin-3-yl)amino)pyrimidin-2-yl)-3-methylpiperidin-4-ol] | 20 to 30 | 30 to 50 |
| CC(C)c1ncc(-c2cn(C)nn2)c2cnc(Nc3ccnc(N4CC[C@@H](O)[C@@](C)(F)C4)n3)cc12 [Example 12, (3S,4R)-3-fluoro-1-(4-((5-isopropyl-8-(1-methyl-1H-1,2,3-triazol-4-yl)-2,6-naphthyridin-3-yl)amino)pyrimidin-2-yl)-3-methylpiperidin-4-ol] | < 15 | 10 to 20 |
| CC(C)c1ncc(-c2cnn(C)c2)c2cnc(Nc3ccnc(N4CC[C@@H](O)[C@@](C)(F)C4)n3)cc12 [Example 14, (3S,4R)-3-fluoro-1-(4-((5-isopropyl-8-(1-methyl-1H-pyrazol-4-yl)-2,6-naphthyridin-3-yl)amino)pyrimidin-2-yl)-3-methylpiperidin-4-ol] | < 15 | > 50 |
| Cc1c(-c2ncc(C(C)C)c3cc(Nc4ccnc(N5CC[C@@H](O)[C@@](C)(F)C5)n4)ncc23)nnn1C [Example 17, (3S,4R)-1-(4-((8-(1,5-dimethyl-1H-1,2,3-triazol-4-yl)-5-isopropyl-2,7-naphthyridin-3-yl)amino)pyrimidin-2-yl)-3-fluoro-3-methylpiperidin-4-ol] | < 15 | 10 to 20 |
| CC(C)c1cnc(-c2cnn(S(C)(=O)=O)c2)c2cnc(Nc3ccnc(N4CC[C@@H](O)[C@@](C)(F)C4)n3)cc12 [Example 18, (3S,4R)-3-fluoro-1-(4-((5-isopropyl-8-(1-(methylsulfonyl)-1H-pyrazol-4-yl)-2,7-naphthyridin-3-yl)amino)pyrimidin-2-yl)-3-methylpiperidin-4-ol] | 15 to 20 | 30 to 50 |
| CC(C)c1cnc(-c2cn(C)nn2)c2cnc(Nc3ccnc(N4CCC5(CCO5)CC4)n3)cc12 [Example 23, N-(2-(1-oxa-7-azaspiro[3.5]nonan-7-yl)pyrimidin-4-yl)-5-isopropyl-8-(1-methyl-1H-1,2,3-triazol-4-yl)-2,7-naphthyridin-3-amine] | < 15 | > 50 |
| CC(C)c1cnc(-c2nnc(C(C)(C)O)o2)c2cnc(Nc3ccnc(N4CC[C@@H](O)[C@@](C)(F)C4)n3)cc12 [Example 27, (3S,4R)-3-fluoro-1-(4-((8-(5-(2-hydroxypropan-2-yl)-1,3,4-oxadiazol-2-yl)-5-isopropyl-2,7-naphthyridin-3-yl)amino)pyrimidin-2-yl)-3-methylpiperidin-4-ol] | < 15 | > 50 |
| CC(C)c1ccc(N2CC3(CCS3(=O)=O)C2)c2cnc(Nc3ccnc(N4CC[C@@H](O)[C@@](C)(F)C4)n3)cc12 [Example 35, 6-(3-((2-((3S,4R)-3-fluoro-4-hydroxy-3-methylpiperidin-1-yl)pyrimidin-4-yl)amino)-5-isopropylisoquinolin-8-yl)-1-thia-6-azaspiro[3.3]heptane 1,1-dioxide] | < 15 | < 10 |
| CO[C@H]1CCN(c2nccc(Nc3cc4c(C(C)C)ccc(N5CC[C@H]5CN)c4cn3)n2)C[C@H]1F [Example 39, 8-((S)-2-(aminomethyl)azetidin-1-yl)-N-(2-((3R,4S)-3-fluoro-4-methoxypiperidin-1-yl)pyrimidin-4-yl)-5-isopropylisoquinolin-3-amine] | < 15 | > 50 |
| CC(C)c1ccc(N2CC(Cn3ccnn3)C2)c2cnc(Nc3ccnc(N4CC[C@](C)(O)[C@H](F)C4)n3)cc12 [Example 40, (3R,4S)-1-(4-((8-(3-((1H-1,2,3-triazol-1-yl)methyl)azetidin-1-yl)-5-isopropylisoquinolin-3-yl)amino)pyrimidin-2-yl)-3-fluoro-4-methylpiperidin-4-ol] | < 15 | 20 to 30 |
